Experimental data from PubChem BioAssay (NCI).
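Where inhibition never reached the appropriate level, the endpoint shown equals the highest concentration tested. Otherwise, values were interpolated linearly from a five-concentration, 48-hour dose response in 96-well plates. Here, GI50 denotes the concentration required for 50% inhibition of growth. TGI: concentration producing complete growth inhibition.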

How the values were obtained:
Assay in all cases: NCI anticancer screen, dose series, 48 h
KM12 colon = system: KM12 colon
ACHN renal = system: ACHN renal
SNB-75 CNS = system: SNB-75 CNS
SK-MEL-28 melanoma = system: SK-MEL-28 melanoma
HL-60(TB) leukemia = system: HL-60(TB) leukemia
MCF7 breast = system: MCF7 breast
MDA-MB-231 breast = system: MDA-MB-231 breast
OVCAR-4 ovarian = system: OVCAR-4 ovarian
MDA-N = system: MDA-N
OVCAR-8 ovarian = system: OVCAR-8 ovarian
OVCAR-3 ovarian = system: OVCAR-3 ovarian
T-47D breast = system: T-47D breast

Row | SMILES | TGI (KM12 colon) [µM] | TGI (ACHN renal) [µM] | TGI (SNB-75 CNS) [µM] | TGI (SK-MEL-28 melanoma) [µM] | TGI (HL-60(TB) leukemia) [µM] | TGI (MCF7 breast) [µM] | TGI (MDA-MB-231 breast) [µM] | TGI (OVCAR-4 ovarian) [µM] | TGI (MDA-N) [µM] | TGI (OVCAR-8 ovarian) [µM] | TGI (OVCAR-3 ovarian) [µM] | TGI (T-47D breast) [µM] | GI50 (T-47D breast) [µM] | GI50 (MDA-MB-231 breast) [µM] | GI50 (KM12 colon) [µM] | GI50 (ACHN renal) [µM] | GI50 (SNB-75 CNS) [µM] | GI50 (SK-MEL-28 melanoma) [µM] | GI50 (OVCAR-3 ovarian) [µM]
1 | CCN1C/C(=C\c2ccc(Cl)cc2)c2nc(N)c(C#N)c(-c3ccc(Cl)cc3)c2C1 | > 100 | > 100 | > 100 | > 100 | > 100 | > 100 | > 100 | > 100 | > 100 | > 100 | > 100 | – | – | – | – | – | – | – | –
2 | CC(C(=O)OCc1ccccc1)N(Cc1ccccc1)Cc1ccccc1 (stereo not drawn) | > 100 | > 100 | > 100 | > 100 | 79.2 | – | – | > 100 | – | > 100 | > 100 | – | – | – | – | – | – | – | –
3 | NS(=O)(=O)c1nc(S(=O)(=O)O)c2[nH]cnc2n1 | > 100 | > 100 | > 100 | > 100 | – | > 100 | > 100 | > 100 | > 100 | > 100 | > 100 | > 100 | – | – | – | – | – | – | –
4 | C#CC(O)(c1nc2ccccc2s1)c1nc2ccccc2s1 | > 100 | 83.2 | – | > 100 | 46.1 | 52.9 | 39.7 | > 100 | 57.4 | 51.5 | 40.8 | 88.9 | – | – | – | – | – | – | –
5 | Cc1c(CNc2ccc(C(=O)NC(CCCNC(=O)c3ccccc3C(=O)O)C(=O)O)cc2)cnc2nc(N)nc(N)c12 (stereo not drawn) | – | – | – | – | > 100 | – | > 100 | – | – | – | > 100 | – | > 100 | > 100 | – | – | – | – | –
6 | COc1ccccc1OCC(COC(=O)Nc1ccccc1)OC(=O)Nc1ccccc1 (stereo not drawn) | > 100 | > 100 | 45.6 | > 100 | > 100 | – | – | > 100 | – | > 100 | > 100 | – | – | – | – | – | – | – | –
7 | N#CC1(C#N)C(C#N)(C#N)C1(C#N)C(N)=O | > 100 | > 100 | – | > 100 | > 100 | > 100 | > 100 | > 100 | > 100 | > 100 | – | > 100 | – | – | – | – | – | – | –
8 | CNc1nnc(CCCCCCCCc2nnc(NC)o2)o1 | > 100 | > 100 | > 100 | > 100 | > 100 | 38.3 | > 100 | > 100 | > 100 | > 100 | 44.9 | – | – | – | – | – | – | – | –
9 | c1nc(NCCc2cnc[nH]2)c2[nH]cnc2n1 | > 100 | > 100 | > 100 | > 100 | > 100 | – | > 100 | > 100 | > 100 | > 100 | > 100 | > 100 | – | – | – | – | – | – | –
10 | Cc1cc2[nH]c3c(C#N)c(-c4ccccc4)c(N=Nc4ccc(F)cc4)c(=O)n3c2cc1C | – | > 100 | > 100 | > 100 | – | > 100 | > 100 | > 100 | > 100 | – | 39.8 | > 100 | – | – | – | – | – | – | –
11 | Cn1nc2ccc(Nc3cc(=O)[nH]c4ccc5nn(C)nc5c34)cc2n1 | > 100 | > 100 | > 100 | > 100 | – | > 100 | > 100 | > 100 | – | > 100 | > 100 | > 100 | – | – | – | – | – | – | –
12 | CN(Cc1cnc2nc(N)nc(N)c2n1)c1ccc(C(=O)NC23CC4CC(CC(C4)C2)C3)cc1 | 24.8 | 11.5 | 38.9 | – | > 100 | 23.6 | 39.5 | – | – | 19.9 | 30.5 | 39 | – | – | – | – | – | – | –
13 | Cc1ccc(S(=O)(=O)N2C[C@@H]3CC[C@]4(CO[Si](C)(C)C(C)(C)C)N[C@@H](c5ccccc5)[C@H]2[C@H]34)cc1 | > 100 | > 100 | – | > 100 | > 100 | > 100 | > 100 | > 100 | > 100 | > 100 | > 100 | 52.6 | – | – | – | – | – | – | –
14 | CC1=NN(c2cccc(Cl)c2)C2(C1=Cc1ccc(O)cc1)C(Cl)C(=O)N2c1nc2ccccc2s1 (stereo not drawn) | 65 | 52.7 | – | > 100 | > 100 | 98.4 | 76.1 | > 100 | 64.8 | 87.8 | > 100 | 97.8 | – | – | – | – | – | – | –
15 | CCCC[C@@H](C)/C=C1\CN2CCC[C@H]2[C@@](C)(OCc2ccccc2)[C@@H]1O | > 18.9 | > 50 | > 50 | > 50 | – | > 50 | > 50 | > 50 | > 50 | > 50 | > 28.7 | > 19.3 | – | – | – | – | – | – | –
16 | O=c1c2cc(C(F)(F)F)ccc2sc2c(NCCCNCCO)nc3ccccc3c12 | 3.17 | 2.86 | 2.87 | 3.32 | – | – | 2.63 | – | – | – | 3.17 | – | – | 1.28 | 1.62 | 1.51 | 1.48 | 1.87 | 1.68
17 | O=[N+]([O-])c1ccc(NN=C2CN3CCN(C2)c2ccccc23)c([N+](=O)[O-])c1 | > 100 | > 100 | – | > 100 | – | > 100 | > 100 | > 100 | > 100 | > 100 | > 100 | > 100 | – | – | – | – | – | – | –
18 | O=C(COc1ccc(OCC(=O)N2C(=O)CC(=O)N(c3ccc(Cl)cc3)C2=S)cc1)N1C(=O)CC(=O)N(c2ccc(Cl)cc2)C1=S | 41.6 | > 100 | > 100 | > 100 | – | > 100 | > 100 | > 100 | 97.2 | – | – | – | – | – | – | – | – | – | –
19 | COc1cccc(N=N/C(=N/NC(=O)c2ccc(C)cc2)c2ccc(N(CCC#N)CCC#N)cc2OC)c1 | > 100 | > 100 | – | > 100 | – | > 100 | > 100 | > 100 | > 100 | > 100 | > 100 | > 100 | – | – | – | – | – | – | –
20 | N#Cc1nc2cc(Cl)ccc2nc1N1CCN(c2ccc([N+](=O)[O-])cc2)CC1 | > 100 | > 100 | > 100 | > 100 | – | > 100 | > 100 | > 100 | > 100 | > 100 | > 100 | > 100 | – | – | – | – | – | – | –
